Test results as given in US10988459B2 (priority 2015, dated 2021).
pKi: −log10 of the molar value.

The compounds below were run against human RIP1 kinase domain (2-375) (Homo sapiens (Human), UniProt Q13546) (assay: biochemical). Settings: Ki.
Sequence of human RIP1 kinase domain (2-375) (Q13546 2-375): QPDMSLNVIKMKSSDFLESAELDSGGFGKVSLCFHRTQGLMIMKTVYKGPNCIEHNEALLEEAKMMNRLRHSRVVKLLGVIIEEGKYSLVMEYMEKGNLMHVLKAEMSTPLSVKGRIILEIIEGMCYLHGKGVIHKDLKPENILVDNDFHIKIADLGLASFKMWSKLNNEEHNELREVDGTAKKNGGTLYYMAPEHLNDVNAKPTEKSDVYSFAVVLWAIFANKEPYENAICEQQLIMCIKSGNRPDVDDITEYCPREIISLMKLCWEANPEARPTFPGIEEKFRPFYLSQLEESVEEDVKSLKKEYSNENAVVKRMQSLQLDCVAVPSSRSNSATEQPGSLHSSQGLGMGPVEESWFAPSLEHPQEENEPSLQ
Assay type: biochemical
Method in brief: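 50 nM purified kinase domain from baculovirus-infected insect cells, incubated 2 h with compound in 50 mM Hepes pH 7.5, 30 mM MgCl2, 1 mM DTT, 50 uM ATP, 0.002% Brij-35, 0.5% DMSO. ADP formation read by Transcreener FP at 633 nm excitation. Ki^app fitted with the Morrison tight-binding equation.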
CN1C(=O)[C@@H](NC(=O)c2ncc3cnn(C4CCOCC4)c3n2)COc2ccccc21 [Example 558, N-[(3S)-5-methyl-4-oxo-2,3-dihydro-1,5-benzoxazepin-3-yl]-1-tetrahydropyran-4-yl-pyrazolo[3,4-d]pyrimidine-6-carboxamide] was tested, and the pKi was 7.41.

Same assay, conditions: Table 1; apparent Ki (Morrison tight-binding fit); 50 nM RIP1 kinase domain, 50 uM ATP, 2 hours incubation; read-out: RIP1 Ki
CN1C(=O)[C@@H](NC(=O)c2n[nH]c3ccccc23)COc2ccccc21 [Example 33, (S)—N-(5-methyl-4-oxo-2,3,4,5-tetrahydrobenzo[b][1,4]oxazepin-3-yl)-1H-indazole-3-carboxamide] showed a pKi of 5.46. Work on CC1(C)CCc2c(C(=O)N[C@H]3CCc4cc(Cl)ccc4NC3=O)n[nH]c2C1 [Example 53, (S)-N-(7-chloro-2-oxo-2,3,4,5-tetrahydro-1H-benzo[b]azepin-3-yl)-6,6-dimethyl-4,5,6,7-tetrahydro-1H-indazole-3-carboxamide] yielded a pKi of 5.35. CN1C(=O)C(NC(=O)c2nnc(Cc3ccccc3)[nH]2)CCn2nc(C3CC3)cc21 (stereo not shown) [Example 29, 5-benzyl-N-(2-cyclopropyl-4-methyl-5-oxo-7,8-dihydro-6H-pyrazolo[1,5-a][1,3]diazepin-6-yl)-4H-1,2,4-triazole-3-carboxamide] showed a pKi of 6.93.

Same assay, conditions: Table 5; apparent Ki (Morrison tight-binding fit); 50 nM RIP1 kinase domain, 50 uM ATP, 2 hours incubation; read-out: Ki
C[C@]1(C(F)(F)F)OCc2cnc(C(=O)N[C@H]3CCc4cc(F)cc(F)c4NC3=O)nc21 [Example 747, (7S)-7-methyl-N-[(3S)-7,9-difluoro-2-oxo-1,3,4,5-tetrahydro-1-benzazepin-3-yl]-7-(trifluoromethyl)-5H-furo[3,4-d]pyrimidine-2-carboxamide] showed a pKi of 7.38. Compound Cc1ncc(-c2cc3n(n2)CCC(NC(=O)c2ncn(Cc4ccccc4)n2)C(=O)N3C)n1C (racemic) [Example 775, 1-benzyl-N-(2-(1,2-dimethyl-1H-imidazol-5-yl)-4-methyl-5-oxo-5,6,7,8-tetrahydro-4H-pyrazolo[1,5-a][1,3]diazepin-6-yl)-1H-1,2,4-triazole-3-carboxamide] has a pKi of 6.74. CN1C(=O)[C@@H](NC(=O)c2ncn(Cc3ccccc3F)n2)CCn2nc(CCN3CC(F)C3)cc21 [Example 770, 1-[(2-fluorophenyl)methyl]-N-[(6S)-2-[2-(3-fluoroazetidin-1-yl)ethyl]-4-methyl-5-oxo-7,8-dihydro-6H-pyrazolo[1,5-a][1,3]diazepin-6-yl]-1,2,4-triazole-3-carboxamide] was tested, and the pKi was 6.47. In the case of CN1C(=O)[C@@H](NC(=O)c2nc3n(n2)CCN(C)C3c2ccccc2)COc2ccccc21 (single isomer, unassigned) [Example 730], the pKi was 6.95.

Same assay, conditions: human RIP1 kinase domain (2-375), 50 uM ATP, 2 hours incubation, Transcreener ADP assay; read-out: RIP1 Ki
With O=C(NC1CCn2ncc3c2N(CCO3)C1=O)c1ncn(Cc2ccccc2)n1 (stereo not shown) [Example 198, 1-benzyl-N-(6-oxo-4,5,6,7,8,9-hexahydro-3-oxa-1,5a,9a-triazabenzo[cd]azulen-7-yl)-1H-1,2,4-triazole-3-carboxamide] the pKi was 6.63. In the case of CN1C(=O)[C@@H](NC(=O)c2cn(Cc3ccc(F)c(F)c3)cn2)CCn2nccc21 [Example 146, (S)-1-(3,4-difluorobenzyl)-N-(4-methyl-5-oxo-5,6,7,8-tetrahydro-4H-pyrazolo[1,5-a][1,3]diazepin-6-yl)-1H-imidazole-4-carboxamide], the pKi was 6.52. For CN1C(=O)[C@@H](NC(=O)c2nc3n(n2)[C@H](c2ccccc2)CC3)CCn2nccc21 (single isomer, unassigned) [Example 126], the pKi was 7.62. Work on CN1C(=O)[C@@H](NC(=O)c2ncn(Cc3ccccc3)n2)CCn2nc(C(F)(F)F)cc21 [Example 91, (S)-1-benzyl-N-(4-methyl-5-oxo-2-(trifluoromethyl)-5,6,7,8-tetrahydro-4H-pyrazolo[1,5-a][1,3]diazepin-6-yl)-1H-1,2,4-triazole-3-carboxamide] yielded a pKi of 7.57. CN1C(=O)[C@@H](NC(=O)c2n[nH]c3c2CC(c2ccc(F)cc2)OC3)COc2ccccc21 (stereo partly drawn) [Example 205, 5-(4-fluorophenyl)-N—((S)-5-methyl-4-oxo-2,3,4,5-tetrahydrobenzo[b][1,4]oxazepin-3-yl)-1,4,5,7-tetrahydropyrano[3,4-c]pyrazole-3-carboxamide] was tested, and the pKi was 7.01. Work on CN1C(=O)[C@@H](NC(=O)c2n[nH]c3c2CC2(CCC2)OC3)COc2ccccc21 [Example 211, (S)—N-(5-methyl-4-oxo-2,3,4,5-tetrahydrobenzo[b][1,4]oxazepin-3-yl)-4′,7′-dihydro-1′H-spiro[cyclobutane-1,5′-pyrano[3,4-c]pyrazole]-3′-carboxamide] yielded a pKi of 6.81.

Same assay, conditions: human RIP1 kinase domain (2-375), Transcreener ADP assay, 50 uM ATP, 2 hours incubation; read-out: RIP1 Ki
Compound CC(C)c1ccc2[nH]nc(C(=O)N[C@H]3COc4ccccc4N(C)C3=O)c2c1 [Example 228, (S)-5-isopropyl-N-(5-methyl-4-oxo-2,3,4,5-tetrahydrobenzo[b][1,4]oxazepin-3-yl)-1H-indazole-3-carboxamide] has a pKi of 8.30. Work on CN1C(=O)[C@H](NC(=O)c2ncn(Cc3cccc(F)c3F)n2)CCn2nc([C@H]3CC3(F)F)cc21 [Example 312, 1-(2,3-difluorobenzyl)-N—((R)-2-((R)-2,2-difluorocyclopropyl)-4-methyl-5-oxo-5,6,7,8-tetrahydro-4H-pyrazolo[1,5-a][1,3]diazepin-6-yl)-1H-1,2,4-triazole-3-carboxamide] yielded a pKi of 7.75. COCC1(C)OCc2cnc(C(=O)N[C@H]3COc4ccccc4N(C)C3=O)cc21 (stereo partly drawn) [Example 231, 1-(methoxymethyl)-1-methyl-N—((S)-5-methyl-4-oxo-2,3,4,5-tetrahydrobenzo[b][1,4]oxazepin-3-yl)-1,3-dihydrofuro[3,4-c]pyridine-6-carboxamide] showed a pKi of 6.29. In the case of Cc1cc2n(n1)CC[C@H](NC(=O)c1cc3c(cn1)COC3(C)C1CC1)C(=O)N2C (stereo partly drawn) [Example 287, 1-cyclopropyl-N—((S)-2,4-dimethyl-5-oxo-5,6,7,8-tetrahydro-4H-pyrazolo[1,5-a][1,3]diazepin-6-yl)-1-methyl-1,3-dihydrofuro[3,4-c]pyridine-6-carboxamide], the pKi was 5.85. CN1C(=O)C(NC(=O)c2ncn(CC3CCC3)n2)CCn2nc(C3CC3)cc21 (stereo not shown) [Example 256, 1-(cyclobutylmethyl)-N-(2-cyclopropyl-4-methyl-5-oxo-5,6,7,8-tetrahydro-4H-pyrazolo[1,5-a][1,3]diazepin-6-yl)-1H-1,2,4-triazole-3-carboxamide] was tested, and the pKi was 6.68.

Same assay, conditions: tight-binding apparent inhibition constant; human RIP1 kinase domain (2-375) 50 nM, 50 uM ATP, 2 hours; read-out: Ki
CCC[C@H]1CCCc2nc(C(=O)N[C@H]3CCc4cc(F)cc(F)c4NC3=O)nn21 (single isomer, unassigned) [Example 435] was tested, and the pKi was 7.60. With CCC[C@@H]1CCCc2nc(C(=O)N[C@H]3COc4cc(C)cc(F)c4NC3=O)nn21 (single isomer, unassigned) [Example 441] the pKi was 8.03. With CC(C)c1cccc2nc(C(=O)N[C@H]3CCc4cc(F)cc(F)c4NC3=O)nn12 [Example 420, (S)—N-(7,9-difluoro-2-oxo-2,3,4,5-tetrahydro-1H-benzo[b]azepin-3-yl)-5-isopropyl-[1,2,4]triazolo[1,5-a]pyridine-2-carboxamide] the pKi was 8.33. Compound CN1C(=O)[C@@H](NC(=O)c2nc3n(n2)C(C2CCCCC2)CCC3)CCn2nccc21 (stereo partly drawn) [Example 381, 5-cyclohexyl-N—((S)-4-methyl-5-oxo-5,6,7,8-tetrahydro-4H-pyrazolo[1,5-a][1,3]diazepin-6-yl)-5,6,7,8-tetrahydro-[1,2,4]triazolo[1,5-a]pyridine-2-carboxamide] has a pKi of 6.55. In the case of CCCC1(C)OCc2cnc(C(=O)N[C@H]3CCn4nc(C)cc4N(C)C3=O)nc21 (stereo partly drawn) [Example 564, 7-methyl-7-propyl-N-[(6S)-2,4-dimethyl-5-oxo-7,8-dihydro-6H-pyrazolo[1,5-a][1,3]diazepin-6-yl]-5H-furo[3,4-d]pyrimidine-2-carboxamide], the pKi was 6.23. Compound CN1C(=O)[C@@H](NC(=O)c2ncn(Cc3ccccc3Cl)n2)CCn2nc(C(F)(F)F)cc21 [Example 528] has a pKi of 8.32. Work on CN1C(=O)[C@@H](NC(=O)c2nc3n(n2)[C@@H](c2ccccc2)CC3)CCn2nccc21 (single isomer, unassigned) [Example 624] yielded a pKi of 7.70. Work on CN1C(=O)[C@@H](NC(=O)c2ncn(CC3CCCOC3)n2)CCn2nc(C3CC3)cc21 (stereo partly shown) [Example 478] yielded a pKi of 6.54. CC(C)c1cc2n(n1)CCC(NC(=O)c1ncn(Cc3ccccc3)n1)C(=O)N2C (stereo not shown) [Example 455, 1-Benzyl-N-(2-isopropyl-4-methyl-5-oxo-5,6,7,8-tetrahydro-4H-pyrazol[1,5-a][1,3]diazepin-6-yl)-1H-1,2,4-triazole-3-carboxamide] showed a pKi of 7.22. With CN1C(=O)[C@@H](NC(=O)c2nc3n(n2)[C@@H](c2c(F)cccc2F)CCC3)CCn2nccc21 (racemic) [Example 401, (R)-5-(2,6-difluorophenyl)-N—((S)-4-methyl-5-oxo-5,6,7,8-tetrahydro-4H-pyrazolo[1,5-a][1,3]diazepin-6-yl)-5,6,7,8-tetrahydro-[1,2,4]triazolo[1,5-a]pyridine-2-carboxamide] the pKi was 7.06. Cc1cc2n(n1)CC[C@H](NC(=O)c1ncn(Cc3cccc(F)c3)n1)C(=O)N2C [Example 519, 1-[(3-fluorophenyl)methyl]-N-(6S)-2,4-dimethyl-5-oxo-7,8-dihydro-6H-pyrazolo[1,5-a][1,3]diazepin-6-yl-1,2,4-triazole-3-carboxamide] gave a pKi of 7.96. With O=C(N[C@H]1COc2cc(F)cc(F)c2NC1=O)c1nc2n(n1)CCO[C@@H]2c1ccccc1 [Example 641, (8R)-8-phenyl-N-[(3S)-6,8-difluoro-4-oxo-3,5-dihydro-2H-1,5-benzoxazepin-3-yl]-6,8-dihydro-5H-[1,2,4]triazolo[5,1-c][1,4]oxazine-2-carboxamide] the pKi was 6.33.
